# Test results taken from patent US20260097126A1, “PHARMACEUTICAL FORMULATIONS AND METHODS FOR THE TREATMENT OF METABOLIC AND LIVER DISORDERS” (priority 2022, published 2026).
# Key:
# [1] = Pharmacokinetic study of Compounds 4, 14, 15, 17 in monkeys; conditions: cynomolgus monkey, in vivo, sc, 0.2 mg/kg
# Description: The formulations were administered to cynomolgus monkeys at a dose of 0.2 mg/kg. Plasma concentration versus time data was collected and pharmacokinetic values determined.
# [2] = test system: mice fed a Gubra amylin NASH (GAN) diet; test: Biological effects in GAN diet-induced NASH mice; assay type: in vivo; conditions: after two weeks
# Description: NASH was induced in mice by feeding mice a Gubra amylin NASH (GAN) diet as described in Boland et al. World J Gastroenterol. 2019, 25(33): 4904-4920. One week prior to administration of a first dose of compounds, the mice were weighed and randomized, and their food intake was measured. Mice were randomly assigned to dosing groups, with twelve mice per group. […] Compound dose titration (nmol/kg): 0.6 (day 0), 1.2 (day 1), 2.4 (day 2), 4.8 (day 3), 4.8 (day 4), 12 (day 5), 30.0 (from day 6).
# After two weeks, animals were sacrificed. Plasma enzymes (P-ALT (alanine aminotransferase) and P-AST (aspartate aminotransferase)), total plasma triglycerides, and total plasma cholesterol were measured, and terminal necropsy of each liver was carried out, determining relative liver weight as a percentage of body weight, assaying total liver biochemistry including total liver triglycerides, plasma insulin and total liver cholesterol, as well as histological evaluation of Galectin-3, and alpha-smooth muscle actin.
# [3] = Stability study of Compound 4 formulations; assay type: physicochemical
# GLP-1 receptor [4] = target: T1, GLP-1 receptor (Homo sapiens, UniProt P43220); test: HSA modulated binding assay, GLP-1 receptor
# T1 sequence (P43220 24-463): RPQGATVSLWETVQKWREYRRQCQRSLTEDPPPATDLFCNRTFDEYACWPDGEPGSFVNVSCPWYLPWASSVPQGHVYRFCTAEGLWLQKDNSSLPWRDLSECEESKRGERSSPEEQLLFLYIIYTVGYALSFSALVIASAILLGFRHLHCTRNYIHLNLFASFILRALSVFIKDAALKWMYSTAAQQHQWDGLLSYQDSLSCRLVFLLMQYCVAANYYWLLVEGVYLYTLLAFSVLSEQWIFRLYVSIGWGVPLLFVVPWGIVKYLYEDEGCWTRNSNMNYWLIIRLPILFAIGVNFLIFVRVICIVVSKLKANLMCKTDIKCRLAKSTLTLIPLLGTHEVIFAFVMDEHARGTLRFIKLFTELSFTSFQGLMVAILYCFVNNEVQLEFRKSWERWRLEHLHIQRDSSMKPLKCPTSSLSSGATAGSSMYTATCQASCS
# GIP receptor [5] = target: T2, GIP receptor (Homo sapiens, UniProt P48546); test: TagLite binding assay, GIP receptor; conditions: read-out: GIP receptor IC 50
# T2 sequence (P48546 22-466): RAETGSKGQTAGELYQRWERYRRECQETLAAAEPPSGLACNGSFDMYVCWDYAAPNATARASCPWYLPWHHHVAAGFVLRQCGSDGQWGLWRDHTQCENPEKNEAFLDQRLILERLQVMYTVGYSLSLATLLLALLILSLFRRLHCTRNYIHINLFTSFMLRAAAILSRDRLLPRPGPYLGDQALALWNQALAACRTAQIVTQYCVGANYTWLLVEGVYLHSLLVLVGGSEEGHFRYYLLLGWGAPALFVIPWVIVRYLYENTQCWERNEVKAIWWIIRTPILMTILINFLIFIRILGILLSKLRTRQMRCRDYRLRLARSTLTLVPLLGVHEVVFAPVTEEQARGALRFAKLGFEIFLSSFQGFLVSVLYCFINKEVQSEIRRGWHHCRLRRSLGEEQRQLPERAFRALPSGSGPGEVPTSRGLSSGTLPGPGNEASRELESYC
# GLP-1 receptor [6] = target: T1, GLP-1 receptor; test: TagLite binding assay, GLP-1 receptor; conditions: read-out: GLP-1 receptor IC 50
# GIP receptor [7] = target: T2, GIP receptor; test: HSA modulated binding assay, GIP receptor
# [8] = liver Galectin-3, histological quantitative assessment
# [9] = liver alpha-smooth muscle actin, histological quantitative assessment
# [10] = GMP formulation, 2.5 mg/ml Compound 4, 0.94% propylene glycol, 0.36% phenol, 0.074% dibasic sodium phosphate, 0.005% polysorbate 80, initial
# [11] = same formulation stored for one month at 25° C./60% R.H.
# [12] = binding with 2% HSA to binding with 0% HSA
compound,measurement,setting,value
CC[C@H](C)[C@H](NC(=O)[C@H](CC(C)C)NC(=O)[C@H](Cc1c[nH]c2ccccc12)NC(=O)[C@H](CCC(N)=O)NC(=O)[C@@H](NC(=O)[C@H](Cc1ccccc1)NC(=O)[C@H](C)NC(=O)[C@H](CCCCNC(=O)COCCOCCNC(=O)COCCOCCNC(=O)CC[C@H](NC(=O)CCCCCCCCCCCCCCCCCCP(=O)(O)O)C(=O)O)NC(=O)[C@H](CCC(N)=O)NC(=O)[C@H](C)NC(=O)[C@@H](NC(=O)[C@H](CCCCN)NC(=O)[C@H](CC(=O)O)NC(=O)[C@H](CC(C)C)NC(=O)C(C)(C)NC(=O)[C@@H](NC(=O)[C@H](CO)NC(=O)[C@H](Cc1ccc(O)cc1)NC(=O)[C@H](CC(=O)O)NC(=O)[C@H](CO)NC(=O)[C@@H](NC(=O)[C@H](Cc1ccccc1)NC(=O)[C@@H](NC(=O)CNC(=O)[C@H](CCC(=O)O)NC(=O)C(C)(C)NC(=O)[C@@H](N)Cc1ccc(O)cc1)[C@@H](C)O)[C@@H](C)O)[C@@H](C)CC)[C@@H](C)CC)C(C)C)C(=O)N[C@@H](C)C(=O)NCC(=O)NCC(=O)N1CCC[C@H]1C(=O)N[C@@H](CO)C(=O)N[C@@H](CO)C(=O)NCC(=O)N[C@@H](C)C(=O)N1CCC[C@H]1C(=O)N1CCC[C@H]1C(=O)N1CCC[C@H]1C(=O)N[C@@H](CO)C(N)=O [Compound 4],AUC(0-inf),[1],321 µg·h/mL
same,AUC(0-t),[1],309 µg·h/mL
same,CL/F,[1],15.2 mL/day/kg
same,Cmax,[1],1890 ng/mL
same,Tmax,[1],20 h
same,Vd/F,[1],0.095 L/kg
same,half-life,[1],105 h
same,liver Galectin-3 compared to tirzepatide or vehicle (in words),[2],lower relative and total liver Galectin-3 as compared to administration of tirzepatide or vehicle alone
same,liver alpha-smooth muscle actin compared to tirzepatide (in words),[2],lower relative and total liver alpha-smooth muscle actin as compared to administration of tirzepatide
same,liver triglycerides compared to tirzepatide or vehicle (in words),[2],lower relative and total liver triglycerides as compared to administration of tirzepatide or vehicle alone
same,Gal-3 Relative,[2]; [8],6.3 ± 0.3 percent fractional area
same,Gal-3 Total,[2]; [8],137 ± 15 mg
same,α-SMA Relative,[2]; [9],4.8 ± 0.6 percent fractional area
same,α-SMA Total,[2]; [9],102 ± 10 mg
same,TG Relative,[2]; liver triglycerides,37 ± 3 mg per/g liver
same,TG Total,[2]; liver triglycerides,70 ± 5 mg per/liver
same,"Compound 4 assay, before storage",[3]; [10],103%
same,"total impurities, before storage",[3]; [10],0.57%
same,"Compound 4 assay, after storage",[3]; [11],102.4%
same,"total impurities, after storage",[3]; [11],0.76%
same,IC50,"GLP-1 receptor [4]; 0% human serum albumin, read-out: GLP-1 receptor IC 50, 0% HSA",0.154 µM
same,GLP-1 receptor Ratio of HSA/No HSA,GLP-1 receptor [4]; [12],6.42
same,IC50,"GLP-1 receptor [4]; read-out: GLP-1 receptor IC 50, 2% HSA, 2% human serum albumin",0.988 µM
same,IC50,GIP receptor [5],0.153 µM
same,IC50,GLP-1 receptor [6],0.105 µM
same,IC50,"GIP receptor [7]; 0% human serum albumin, read-out: GIP receptor IC 50, 0% HSA",0.264 µM
same,GIP receptor Ratio of HSA/No HSA,GIP receptor [7]; [12],1.25
same,IC50,"GIP receptor [7]; read-out: GIP receptor IC 50, 2% HSA, 2% human serum albumin",0.331 µM
